Where two headings read alike, the source gives them in different places.
Tests used:
[1] = target: T1, β-lactamase I from Bacillus cereus (Bacillus cereus, UniProt P00809); format: biochemical; conditions: for ECL increase upon enzyme hydrolysis, second experiment: incubating time with enzyme 60 minutes, ampicillin with Ru(bpy)3^+2, FIG. 9
Experimental: ECL properties were compared both before and after NaOH and enzymatic hydrolysis (FIG. 7).
Following 30 minute incubations, the solutions were neutralized with 50 μL of 5 M HCl. […] Following 30 minute incubations, 50 μL of 5 M NaCl was added to these solutions.
ECL properties were compared before and after NaOH and enzymatic hydrolysis.
Following 30 minute incubations, the solutions were neutralized with 50 μL of 5 M HCl. […] Following 60 minute incubations, 50 μL of 5 M NaCl was added to these solutions.

[2] = target: T1, β-lactamase I from Bacillus cereus; conditions: in words
[3] = 3.8 μM β-lactamase I, 23.0 μM, 6-APA in equimolar mixture with Ru(bpy)3^+2 (nonconjugated), FIG. 11
[4] = 347 nM β-lactamase I, 30 minutes, 30 μM, ampicillin in equimolar mixture with Ru(bpy)3^+2 (nonconjugated), FIG. 8

T1 sequence (P00809 28-306): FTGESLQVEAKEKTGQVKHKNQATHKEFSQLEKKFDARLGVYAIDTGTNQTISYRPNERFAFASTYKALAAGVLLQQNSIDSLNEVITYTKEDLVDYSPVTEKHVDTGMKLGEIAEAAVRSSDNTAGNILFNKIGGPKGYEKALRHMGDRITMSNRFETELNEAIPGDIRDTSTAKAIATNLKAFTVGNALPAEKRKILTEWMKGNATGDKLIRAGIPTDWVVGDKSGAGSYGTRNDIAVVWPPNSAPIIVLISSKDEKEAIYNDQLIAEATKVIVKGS

Compound | ECL increase upon enzyme hydrolysis [1, 3] [fold] | ECL increase upon enzyme hydrolysis [1, 4] [fold] | ECL increase upon enzyme hydrolysis, second experiment [1] [fold] | substrate quality for β-lactamase [2]
CC1(C)S[C@@H]2[C@H](N)C(=O)N2[C@H]1C(=O)O [6-APA, 6-aminopenicillanic acid, reference compound] | 1.4 | – | – | –
CC1(C)S[C@@H]2[C@H](NC(=O)[C@H](N)c3ccccc3)C(=O)N2[C@H]1C(=O)O [ampicillin, reference compound] | – | 2.1 | 2.5 | –
Ru(bpy)3^+2-labeled 6-aminopenicillanic acid [Ru-APA] | 31.8 | – | – | very good substrate
Ru(bpy)3^+2-labeled ampicillin [Ru-AMP] | – | 9.8 | 11.1 | very good substrate

Reference: US7018802B2, “Electrochemiluminescent enzyme immunoassay” (BioVeris Corporation, priority 1995, dated 2006)
